From BindingDB's records for doi:10.1016/j.bioorg.2015.02.002 (Bezmialem Vakif University, 2015)

Key:
[1] = biological target: Carboxylic ester hydrolase (Equus caballus, UniProt Q9N1N9); assay: Anticholinesterase Activity Assays; conditions: pH 8
Procedure: (§1) The substrates of the reaction were acetylthiocholine iodide and butyrylthiocholine iodide. 5,5'-dithio-bis(2-nitrobenzoic) acid (DTNB) was used for the measurement of the anticholinesterase activity. The solutions of the samples and galantamine in n-propanol were prepared at concentration of 4000 µg/mL. […] 10 µL of DTNB solution was prepared by adding 2.0 mL of pH 7.0 and 4.0 mL of pH 8.0 phosphate buffers to a mixture of 1.0 mL of 16 mg/mL DTNB and 7.5 mg/mL NaHCO3 in pH 7.0 phosphate buffers. The reaction was initiated by the addition of 10 µL (7.1 mM) acetylthiocholine iodide (or 0.79 mM butyrylthiocholine iodide). Propyl alcohol was used as a solvent to controls. The hydrolysis of these substrates was monitored at 412 nm.

[2] = biological target: Acetylcholinesterase (Electrophorus electricus, UniProt O42275); assay: Anticholinesterase Activity Assays; conditions: pH 8
Procedure: as §1

Sequence of Carboxylic ester hydrolase (Q9N1N9 whole entry): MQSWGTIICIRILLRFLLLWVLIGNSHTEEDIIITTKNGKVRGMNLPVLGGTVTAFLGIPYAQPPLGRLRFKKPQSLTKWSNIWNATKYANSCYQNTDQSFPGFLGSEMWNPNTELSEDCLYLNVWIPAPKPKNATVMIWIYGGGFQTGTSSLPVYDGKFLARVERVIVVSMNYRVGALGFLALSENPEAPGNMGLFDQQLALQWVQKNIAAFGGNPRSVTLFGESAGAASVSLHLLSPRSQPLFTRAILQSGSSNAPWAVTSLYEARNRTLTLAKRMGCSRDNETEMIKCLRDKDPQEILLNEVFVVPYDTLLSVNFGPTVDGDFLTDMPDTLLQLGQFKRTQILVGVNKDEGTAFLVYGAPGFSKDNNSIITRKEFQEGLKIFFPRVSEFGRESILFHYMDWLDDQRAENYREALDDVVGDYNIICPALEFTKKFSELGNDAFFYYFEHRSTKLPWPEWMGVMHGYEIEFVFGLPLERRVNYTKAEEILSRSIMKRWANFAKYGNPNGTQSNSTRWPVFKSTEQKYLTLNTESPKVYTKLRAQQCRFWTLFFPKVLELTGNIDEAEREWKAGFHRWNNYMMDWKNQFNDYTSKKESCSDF
Sequence of Acetylcholinesterase (O42275 whole entry): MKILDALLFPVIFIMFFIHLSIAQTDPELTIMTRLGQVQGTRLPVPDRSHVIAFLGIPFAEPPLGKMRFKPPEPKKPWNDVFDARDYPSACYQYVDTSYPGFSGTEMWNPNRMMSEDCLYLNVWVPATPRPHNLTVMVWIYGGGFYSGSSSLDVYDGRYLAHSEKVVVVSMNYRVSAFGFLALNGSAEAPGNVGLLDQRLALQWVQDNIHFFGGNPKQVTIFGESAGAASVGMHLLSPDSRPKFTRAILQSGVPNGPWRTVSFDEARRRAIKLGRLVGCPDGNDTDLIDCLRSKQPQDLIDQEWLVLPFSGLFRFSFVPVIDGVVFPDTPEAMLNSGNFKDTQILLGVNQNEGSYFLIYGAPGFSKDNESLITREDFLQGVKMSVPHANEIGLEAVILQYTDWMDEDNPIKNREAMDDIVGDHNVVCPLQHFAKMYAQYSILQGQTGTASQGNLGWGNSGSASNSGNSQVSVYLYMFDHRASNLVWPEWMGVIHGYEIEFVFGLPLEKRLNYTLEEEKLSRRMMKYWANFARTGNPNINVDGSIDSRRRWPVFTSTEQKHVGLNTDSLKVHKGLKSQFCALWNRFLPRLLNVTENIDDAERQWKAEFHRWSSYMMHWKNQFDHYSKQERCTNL

## COc1cccc2cc(-c3csc(NC(=O)Nc4ccc(F)cc4)n3)c(=O)oc12 [1-(4-Fluorophenyl)-3-(4-(8-methoxy-2-oxo-2H-chromen-3-yl)thiazol-2-yl)urea (e22)]
[1]
  IC50: 63.3 µM
[2]
  IC50: 115 µM

## O=C(Nc1cccc(Cl)c1)Nc1nc(-c2cc3ccccc3oc2=O)cs1 [1-(3-Chlorophenyl)-3-(4-(2-oxo-2H-chromen-3-yl)thiazol-2-yl)urea (e10)]
[1]
  IC50: 66.6 µM
[2]
  IC50: 111 µM

## COc1cccc2cc(-c3csc(NC(=O)Nc4ccc(Br)cc4)n3)c(=O)oc12 [1-(4-Bromophenyl)-3-(4-(8-methoxy-2-oxo-2H-chromen-3-yl)thiazol-2-yl)urea (e25)]
[2]
  IC50: 69.1 µM

## COc1ccc(NC(=O)Nc2nc(-c3cc4cc([N+](=O)[O-])ccc4oc3=O)cs2)cc1 [1-(4-Methoxyphenyl)-3-(4-(6-nitro-2-oxo-2H-chromen-3-yl)thiazol-2-yl)urea (e28)]
[1]
  IC50: 118 µM
[2]
  IC50: > 200 µM

## O=C(Nc1ccc(F)cc1)Nc1nc(-c2cc3ccccc3oc2=O)cs1 [1-(4-Fluorophenyl)-3-(4-(2-oxo-2H-chromen-3-yl)thiazol-2-yl)urea (e9)]
[1]
  IC50: 84.9 µM
[2]
  IC50: 101 µM

## COc1cccc2cc(-c3csc(NC(=S)Nc4ccc(F)cc4)n3)c(=O)oc12 [1-(4-(8-Methoxy-2-oxo-2H-chromen-3-yl)thiazol-2-yl)-3-(4-fluorophenyl)thiourea (f7)]
[1]
  IC50: 46.1 µM
[2]
  IC50: 23.3 µM

## O=C(Nc1ccc([N+](=O)[O-])cc1)Nc1nc(-c2cc3ccccc3oc2=O)cs1 [1-(4-Nitrophenyl)-3-(4-(2-oxo-2H-chromen-3-yl)thiazol-2-yl)urea (e6)]
[1]
  IC50: 52.7 µM
[2]
  IC50: 74.8 µM

## COc1cccc2cc(-c3csc(NC(=O)Nc4cccc([N+](=O)[O-])c4)n3)c(=O)oc12 [1-(4-(8-Methoxy-2-oxo-2H-chromen-3-yl)thiazol-2-yl)-3-(3-nitrophenyl)urea (e18)]
[1]
  IC50: 78.4 µM
[2]
  IC50: 90 µM

## COc1cccc2cc(-c3csc(NC(=S)Nc4ccc(Cl)cc4)n3)c(=O)oc12 [1-(4-(8-Methoxy-2-oxo-2H-chromen-3-yl)thiazol-2-yl)-3-(4-chlorophenyl)thiourea (f8)]
[1]
  IC50: 12.1 µM
[2]
  IC50: 4.58 µM

## COc1cccc2cc(-c3csc(NC(=O)Nc4ccccc4)n3)c(=O)oc12 [1-(4-(8-Methoxy-2-oxo-2H-chromen-3-yl)thiazol-2-yl)-3-phenylurea (e17)]
[1]
  IC50: 77.5 µM
[2]
  IC50: 84.1 µM

## O=C(Nc1cccc(F)c1)Nc1nc(-c2cc3ccccc3oc2=O)cs1 [1-(3-Fluorophenyl)-3-(4-(2-oxo-2H-chromen-3-yl)thiazol-2-yl)urea (e8)]
[1]
  IC50: 62.2 µM
[2]
  IC50: 58.1 µM

## COc1cccc2cc(-c3csc(NC(=O)Nc4ccc([N+](=O)[O-])cc4)n3)c(=O)oc12 [1-(4-(8-Methoxy-2-oxo-2H-chromen-3-yl)thiazol-2-yl)-3-(4-nitrophenyl)urea (e19)]
[1]
  IC50: 83.7 µM
[2]
  IC50: 46.5 µM

## COc1cccc2cc(-c3csc(NC(=S)Nc4cccc(F)c4)n3)c(=O)oc12 [1-(4-(8-Methoxy-2-oxo-2H-chromen-3-yl)thiazol-2-yl)-3-(3-fluorophenyl)thiourea (f6)]
[1]
  IC50: 18 µM
[2]
  IC50: 18.4 µM

## O=C(Nc1ccc(I)cc1)Nc1nc(-c2cc3cc([N+](=O)[O-])ccc3oc2=O)cs1 [1-(4-Iodophenyl)-3-(4-(6-nitro-2-oxo-2H-chromen-3-yl)thiazol-2-yl)urea (e34)]
[1]
  IC50: 97.5 µM
[2]
  IC50: 26.7 µM

## COc1cccc(NC(=O)Nc2nc(-c3cc4cc([N+](=O)[O-])ccc4oc3=O)cs2)c1 [1-(3-Methoxyphenyl)-3-(4-(6-nitro-2-oxo-2H-chromen-3-yl)thiazol-2-yl)urea (e27)]
[1]
  IC50: 77.5 µM
[2]
  IC50: 38.7 µM

## COc1cccc2cc(-c3csc(NC(=O)Nc4cccc(Cl)c4)n3)c(=O)oc12 [1-(4-(8-Methoxy-2-oxo-2H-chromen-3-yl)thiazol-2-yl)-3-(3-chlorophenyl)urea (e23)]
[1]
  IC50: 62.9 µM
[2]
  IC50: 105 µM

## O=c1oc2ccccc2cc1-c1csc(NC(=S)Nc2ccc(Cl)cc2)n1 [1-(4-Chlorophenyl)-3-(4-(2-oxo-2H-chromen-3-yl)thiazol-2-yl)thiourea (f2)]
[1]
  IC50: 24.3 µM
[2]
  IC50: 7.63 µM

## COc1cccc2cc(-c3csc(NC(=O)Nc4ccc(Cl)cc4)n3)c(=O)oc12 [1-(4-(8-Methoxy-2-oxo-2H-chromen-3-yl)thiazol-2-yl)-3-(4-chlorophenyl)urea (e24)]
[1]
  IC50: 70.6 µM
[2]
  IC50: 107 µM

## COc1ccc(NC(=O)Nc2nc(-c3cc4ccccc4oc3=O)cs2)cc1 [1-(4-Methoxyphenyl)-3-(4-(2-oxo-2H-chromen-3-yl)thiazol-2-yl)urea (e3)]
[1]
  IC50: 82.5 µM
[2]
  IC50: 95.9 µM

## Cc1ccc(NC(=O)Nc2nc(-c3cc4ccccc4oc3=O)cs2)cc1 [1-(p-tolyl)-3-(4-(2-oxo-2H-chromen-3-yl)thiazol-2-yl)urea (e4)]
[1]
  IC50: 54.8 µM
[2]
  IC50: 81.5 µM

## COc1cccc2cc(-c3csc(NC(=S)Nc4ccc(C)cc4)n3)c(=O)oc12 [1-(4-(8-Methoxy-2-oxo-2H-chromen-3-yl)thiazol-2-yl)-3-(ptolyl)thiourea (f4)]
[1]
  IC50: 36.5 µM
[2]
  IC50: 51.9 µM

## O=C(Nc1ccc(I)cc1)Nc1nc(-c2cc3ccccc3oc2=O)cs1 [1-(4-Iodophenyl)-3-(4-(2-oxo-2H-chromen-3-yl)thiazol-2-yl)urea (e13)]
[1]
  IC50: 112 µM
[2]
  IC50: 91.2 µM

## COc1ccc(NC(=S)Nc2nc(-c3cc4cccc(OC)c4oc3=O)cs2)cc1 [1-(4-(8-Methoxy-2-oxo-2H-chromen-3-yl)thiazol-2-yl)-3-(4-methoxyphenyl)thiourea (f3)]
[1]
  IC50: 31.2 µM
[2]
  IC50: 41.2 µM

## O=C(Nc1ccc(Br)cc1)Nc1nc(-c2cc3ccccc3oc2=O)cs1 [1-(4-Bromophenyl)-3-(4-(2-oxo-2H-chromen-3-yl)thiazol-2-yl)urea (e12)]
[1]
  IC50: 95.4 µM
[2]
  IC50: 121 µM

## O=C(Nc1ccc(Cl)cc1)Nc1nc(-c2cc3ccccc3oc2=O)cs1 [1-(4-Chlorophenyl)-3-(4-(2-oxo-2H-chromen-3-yl)thiazol-2-yl)urea (e11)]
[1]
  IC50: 88.4 µM
[2]
  IC50: 38.1 µM

## COc1cccc(NC(=O)Nc2nc(-c3cc4cccc(OC)c4oc3=O)cs2)c1 [1-(4-(8-Methoxy-2-oxo-2H-chromen-3-yl)thiazol-2-yl)-3-(3-methoxyphenyl)urea (e14)]
[1]
  IC50: 56.5 µM
[2]
  IC50: 83.8 µM

## COc1cccc(NC(=O)Nc2nc(-c3cc4ccccc4oc3=O)cs2)c1 [1-(3-Methoxyphenyl)-3-(4-(2-oxo-2H-chromen-3-yl)thiazol-2-yl)urea (e2)]
[1]
  IC50: 75 µM
[2]
  IC50: 52.8 µM

## O=C(Nc1ccc(Cl)cc1)Nc1nc(-c2cc3cc([N+](=O)[O-])ccc3oc2=O)cs1 [1-(4-Chlorophenyl)-3-(4-(6-nitro-2-oxo-2H-chromen-3-yl)thiazol-2-yl)urea (e32)]
[1]
  IC50: 78.3 µM
[2]
  IC50: 129 µM

## O=C(Nc1ccc(F)cc1)Nc1nc(-c2cc3cc([N+](=O)[O-])ccc3oc2=O)cs1 [1-(4-Fluorophenyl)-3-(4-(6-nitro-2-oxo-2H-chromen-3-yl)thiazol-2-yl)urea (e31)]
[1]
  IC50: 4.93 µM
[2]
  IC50: 134 µM

## O=C(Nc1nc(-c2cc3ccccc3oc2=O)cs1)Nc1ccccc1F [1-(2-Flurophenyl)-3-(4-(2-oxo-2H-chromen-3-yl)thiazol-2-yl)urea (e7)]
[1]
  IC50: 34.5 µM
[2]
  IC50: 31.5 µM

## O=c1oc2ccccc2cc1-c1csc(NC(=S)Nc2cccc(F)c2)n1 [1-(3-Fluorophenyl)-3-(4-(2-oxo-2H-chromen-3-yl)thiazol-2-yl)thiourea (f1)]
[1]
  IC50: 20.8 µM
[2]
  IC50: 16.4 µM

## COc1ccc(NC(=O)Nc2nc(-c3cc4cccc(OC)c4oc3=O)cs2)cc1 [1-(4-(8-Methoxy-2-oxo-2H-chromen-3-yl)thiazol-2-yl)-3-(4-methoxyphenyl)urea (e15)]
[1]
  IC50: 99.6 µM
[2]
  IC50: 119 µM

## COc1cccc2cc(-c3csc(NC(=O)Nc4ccc(I)cc4)n3)c(=O)oc12 [1-(4-Iodophenyl)-3-(4-(8-methoxy-2-oxo-2H-chromen-3-yl)thiazol-2-yl)urea (e26)]
[1]
  IC50: 159 µM
[2]
  IC50: 61.3 µM

## O=C(Nc1ccccc1)Nc1nc(-c2cc3cc([N+](=O)[O-])ccc3oc2=O)cs1 [1-(4-(6-Nitro-2-oxo-2H-chromen-3-yl)thiazol-2-yl)-3-phenylurea (e30)]
[1]
  IC50: 84.5 µM
[2]
  IC50: 103 µM

## O=C(Nc1ccccc1)Nc1nc(-c2cc3ccccc3oc2=O)cs1 [1-Phenyl-3-(4-(2-oxo-2H-chromen-3-yl)thiazol-2-yl)urea (e5)]
[1]
  IC50: 74.6 µM
[2]
  IC50: 73.2 µM

## O=C(Nc1ccc(Br)cc1)Nc1nc(-c2cc3cc([N+](=O)[O-])ccc3oc2=O)cs1 [1-(4-Bromophenyl)-3-(4-(6-nitro-2-oxo-2H-chromen-3-yl)thiazol-2-yl)urea (e33)]
[1]
  IC50: 92.5 µM
[2]
  IC50: 46.2 µM

## COc1cccc2cc(-c3csc(NC(=S)Nc4ccccc4)n3)c(=O)oc12 [1-(4-(8-Methoxy-2-oxo-2H-chromen-3-yl)thiazol-2-yl)-3-phenylthiourea (f5)]
[1]
  IC50: 21.8 µM
[2]
  IC50: 46 µM

## COc1ccccc1NC(=O)Nc1nc(-c2cc3ccccc3oc2=O)cs1 [1-(2-Methoxyphenyl)-3-(4-(2-oxo-2H-chromen-3-yl)thiazol-2-yl)urea (e1)]
[1]
  IC50: 30.3 µM
[2]
  IC50: 38 µM

## Cc1ccc(NC(=O)Nc2nc(-c3cc4cc([N+](=O)[O-])ccc4oc3=O)cs2)cc1 [1-(4-(6-Nitro-2-oxo-2H-chromen-3-yl)thiazol-2-yl)-3-(ptolyl)urea (e29)]
[1]
  IC50: 195 µM
[2]
  IC50: 93.9 µM

## COc1cccc2cc(-c3csc(NC(=O)Nc4ccccc4F)n3)c(=O)oc12 [1-(2-Fluorophenyl)-3-(4-(8-methoxy-2-oxo-2H-chromen-3-yl)thiazol-2-yl)urea (e20)]
[1]
  IC50: 79.6 µM
[2]
  IC50: 66.2 µM
